Data as given in patent US12545659B2, “IRAK degraders and uses thereof” (Kymera Therapeutics, Inc., priority 2019, dated 2026).
Where two headings read alike, the source gives them in different places.

Experiments:
IRAK4 = target: T1, IRAK4 (Homo sapiens, UniProt Q9NWZ3); experiment: IRAK4 MSD Degradation in OCI-LY10; assay type: cell-based; conditions: OCI-LY10 cells
T1 construct: endogenous in cells; host or cells: OCI-LY10
T1 sequence (Q9NWZ3 1-460): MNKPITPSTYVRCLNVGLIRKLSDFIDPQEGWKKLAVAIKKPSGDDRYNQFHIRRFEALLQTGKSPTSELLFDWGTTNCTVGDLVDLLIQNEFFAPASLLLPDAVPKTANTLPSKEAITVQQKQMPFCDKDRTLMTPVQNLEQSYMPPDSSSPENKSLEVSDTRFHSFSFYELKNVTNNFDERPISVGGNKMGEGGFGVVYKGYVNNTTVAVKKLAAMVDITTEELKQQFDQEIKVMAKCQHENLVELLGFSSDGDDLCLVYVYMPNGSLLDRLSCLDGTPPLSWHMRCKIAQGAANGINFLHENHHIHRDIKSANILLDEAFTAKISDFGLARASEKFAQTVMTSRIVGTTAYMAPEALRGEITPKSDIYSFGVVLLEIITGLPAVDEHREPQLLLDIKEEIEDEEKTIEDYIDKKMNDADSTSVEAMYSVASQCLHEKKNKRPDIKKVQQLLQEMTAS
In short: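 OCI-LY10 cells treated with 8-dose, 1:3 dilution series (top final 1 to 10 μM) for 4 to 24 h at 37 °C, 5% CO2. Lysate IRAK4 quantified by MSD sandwich immunoassay (mouse 2H9 capture, rabbit Y279 detection, SULFO-TAG anti-rabbit); DC50 from three-parameter logistic fit.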

OCI-LY10 cells = experiment: CTG Cell Viability Assay - OCI-LY10; assay type: cell-based; conditions: Homo sapiens
Description: (§1) Compound-mediated viability effect on OCI-LY10 or SUDHL-2 was quantitatively determined using the CellTiter-Glo® Luminescent Cell Viability Assay kit from Promega (Catalog number G7570) following manufacturer's recommended procedures. Briefly, OCI-LY10 or SUDHL-2 cells were seeded into 384 well plates (Grenier Bio-One, Catalog number 781080) with a density of 10,000 cells per well. Compounds were then added to the assay plate with final top concentration of 10 M and 1:3 dilution series with total of 9 doses. The final DMSO concentration was normalized to 0.2%. The assay plates were incubated at 37° C. for 4 days under 5% CO2. Then the assay plate was equilibrated at room temperature for 10 minutes. To determine cell viability, L CellTiter Glo reagent was added to each well and the assay plate was centrifuged at 1000 rpm for 30 second, incubated at room temperature for 10 min, and analyzed by detecting the luminescence using a multimode plate reader (EnVision 2105, PerkinElmer). The data was then analyzed by software Prism 7.0 from GraphPad and the dose response curves were fit using a three-parameter logistic equation to calculate IC50.

[1] = target: T2, Ikaros (protein product of gene IKZF1) (Homo sapiens, UniProt Q13422+Q96SW2); experiment: Ikaros degradation in OCI-LY10 (quantitative immunoblotting); assay type: cell-based; conditions: OCI-LY10 cells, 6 h, immunoblot relative to actin; read-out: Ikros Degradation in OCI-LY10: DC50
T2 construct: endogenous in cells; host or cells: OCI-LY10
Description: (§2) Degradation of Ikaros (protein product of gene IKZF1) and Aiolos (protein product of gene IKZF3) were determined by quantitative immunoblotting as follows. OCI-LY10 cells, 2×10^6 cells/well, were treated with listed concentrations of IRAK4 degraders or control compounds in 6 well plates for 6 h. Cells were collected, washed with cold PBS, lysed in RIPA buffer (Boston BioProducts BP-115D) with protease/phosphatase inhibitor cocktail (Roche 05892791001/Roche 04906837001) and centrifuged at 13000 RPM for 20 min to precipitate insoluble material. The supernatant fraction was diluted in SDS-PAGE loading buffer (Beyotime Bio P0015) and 20 L of each sample was resolved on 4-12% Bis-Tris SDS-PAGE gels (Novex, WG1402BOX). Resolved samples were transferred to nitrocellulose membranes by wet electro-transfer method at […] for 1.5 h. The membrane was blocked with LICOR blocking buffer (LI-COR, 927-50000) for 1 hour, washed three times with TBST (CST #9997S) for 5 minutes each and incubated with primary antibody prepared in block buffer with 0.1% Tween-20 (Solarbio, P8220) at 4° C. overnight. Ikaros antibody was rabbit monoclonal D6N9Y (CST #14859), at 1:1000 dilution. Aiolos antibody was rabbit monoclonal D1C1E (CST #15103), at 1:1000 dilution. Signal was normalized to mouse anti-beta-Actin monoclonal 8H10D10 (CST #3700) used at 1:10,000 dilution. After incubation in primary antibodies, membranes were washed three times with TBST, 5 minutes each, incubated with fluorescently labeled secondary antibodies anti-rabbit IgG (Licor, 926-32211) at 1:5000 dilution; anti-mouse IgG (LI-COR, 926-68070) at 1:5000 dilution, for 1 hour at RT. After incubation in secondary, membranes were washed three times with TBST, 5 minutes each and read on LICOR Odyssey imager. Data was reported as signal for Ikaros or Aiolos relative to signal for actin, and normalized to DMSO-treated control.
(§3) The letter codes for Ikaros and Aiolos DC50 include: A (<0.05 μM); B (0.05-0.1 μM); C (0.1-0.5 μM); D (0.5-1.0 μM); and E (>1.0 μM).

[2] = target: T3, Aiolos (protein product of gene IKZF3) (Homo sapiens, UniProt Q9UKT9); experiment: Aiolos degradation in OCI-LY10 (quantitative immunoblotting); assay type: cell-based; conditions: OCI-LY10 cells, 6 h, immunoblot relative to actin
T3 construct: endogenous in cells; host or cells: OCI-LY10
Description: as §2, §3

SUDHL-2 cells = experiment: CTG Cell Viability Assay - SUDHL-2; assay type: cell-based; conditions: Homo sapiens, SU-DHL-2, 96 h
Description: as §1

[3] = cn_pd bond, 14-membered ring
[4] = tested on: OCI-LY10 (MYD88 mutant DLBCL cell line); experiment: OCI-LY10 viability, CTG; assay type: cell-based; conditions: Homo sapiens, OCI-Ly10, read-out: OCI-LY10 Viability, CTG IC50
[5] = tested on: SU-DHL2 (MYD88 mutant DLBCL cell line); experiment: SU-DHL2 viability, CTG; assay type: cell-based; conditions: Homo sapiens, SU-DHL-2, read-out: SU-DHL2 Viability, CTG IC50
U2932 (MYD88 WT line) = experiment: U2932 viability, CTG; assay type: cell-based; conditions: Homo sapiens, in vitro
SU-DHL6 (MYD88 WT line) = experiment: SU-DHL6 viability, CTG; assay type: cell-based; conditions: Homo sapiens, SU-DHL-6, in vitro
OCI-LY19 (MYD88 WT line) = experiment: OCI-LY19 viability, CTG; assay type: cell-based; conditions: Homo sapiens, in vitro
[6] = 4 hrs incubation, read-out: IRAK4 degradation in OCI-LY10 at 4 hrs: DC50
[7] = 24 hrs incubation, read-out: IRAK4 degradation in OCI-LY10 at 24 hrs: DC50
[8] = 96 h, OCI-LY10 cells, 4 days, CellTiter-Glo, read-out: CTG Cell Viability Assay - OCI-LY10: IC50
[9] = SUDHL-2 cells, 4 days, CellTiter-Glo, read-out: CTG Cell Viability Assay - SUDHL-2: IC50

T2 sequence (Q13422 whole entry): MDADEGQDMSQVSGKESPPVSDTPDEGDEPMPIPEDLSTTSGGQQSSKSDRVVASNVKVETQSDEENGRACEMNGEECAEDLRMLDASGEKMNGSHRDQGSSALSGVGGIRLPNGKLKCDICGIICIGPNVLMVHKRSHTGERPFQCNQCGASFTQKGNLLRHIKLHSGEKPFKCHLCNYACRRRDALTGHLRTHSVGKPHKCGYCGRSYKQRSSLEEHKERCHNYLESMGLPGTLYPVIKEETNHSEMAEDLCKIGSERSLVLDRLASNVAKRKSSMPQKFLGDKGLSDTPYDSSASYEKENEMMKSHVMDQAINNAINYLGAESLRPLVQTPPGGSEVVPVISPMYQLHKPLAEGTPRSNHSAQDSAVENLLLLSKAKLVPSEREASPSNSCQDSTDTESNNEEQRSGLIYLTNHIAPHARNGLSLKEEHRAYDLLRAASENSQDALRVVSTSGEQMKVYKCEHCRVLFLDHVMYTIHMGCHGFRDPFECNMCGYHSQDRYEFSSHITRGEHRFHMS
T2 sequence (Q96SW2 whole entry): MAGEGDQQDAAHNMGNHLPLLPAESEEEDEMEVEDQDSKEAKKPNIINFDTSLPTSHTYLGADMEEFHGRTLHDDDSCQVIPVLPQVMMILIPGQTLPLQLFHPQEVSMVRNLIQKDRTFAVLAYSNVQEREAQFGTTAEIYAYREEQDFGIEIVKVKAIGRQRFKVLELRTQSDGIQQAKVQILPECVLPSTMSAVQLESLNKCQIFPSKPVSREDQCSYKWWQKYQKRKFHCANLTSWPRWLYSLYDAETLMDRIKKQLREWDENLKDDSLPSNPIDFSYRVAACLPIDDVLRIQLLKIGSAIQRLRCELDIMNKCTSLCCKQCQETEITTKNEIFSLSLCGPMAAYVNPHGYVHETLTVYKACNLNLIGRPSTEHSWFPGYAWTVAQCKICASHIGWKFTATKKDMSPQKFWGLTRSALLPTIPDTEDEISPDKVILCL
T2 sequence (Q16531 whole entry partner): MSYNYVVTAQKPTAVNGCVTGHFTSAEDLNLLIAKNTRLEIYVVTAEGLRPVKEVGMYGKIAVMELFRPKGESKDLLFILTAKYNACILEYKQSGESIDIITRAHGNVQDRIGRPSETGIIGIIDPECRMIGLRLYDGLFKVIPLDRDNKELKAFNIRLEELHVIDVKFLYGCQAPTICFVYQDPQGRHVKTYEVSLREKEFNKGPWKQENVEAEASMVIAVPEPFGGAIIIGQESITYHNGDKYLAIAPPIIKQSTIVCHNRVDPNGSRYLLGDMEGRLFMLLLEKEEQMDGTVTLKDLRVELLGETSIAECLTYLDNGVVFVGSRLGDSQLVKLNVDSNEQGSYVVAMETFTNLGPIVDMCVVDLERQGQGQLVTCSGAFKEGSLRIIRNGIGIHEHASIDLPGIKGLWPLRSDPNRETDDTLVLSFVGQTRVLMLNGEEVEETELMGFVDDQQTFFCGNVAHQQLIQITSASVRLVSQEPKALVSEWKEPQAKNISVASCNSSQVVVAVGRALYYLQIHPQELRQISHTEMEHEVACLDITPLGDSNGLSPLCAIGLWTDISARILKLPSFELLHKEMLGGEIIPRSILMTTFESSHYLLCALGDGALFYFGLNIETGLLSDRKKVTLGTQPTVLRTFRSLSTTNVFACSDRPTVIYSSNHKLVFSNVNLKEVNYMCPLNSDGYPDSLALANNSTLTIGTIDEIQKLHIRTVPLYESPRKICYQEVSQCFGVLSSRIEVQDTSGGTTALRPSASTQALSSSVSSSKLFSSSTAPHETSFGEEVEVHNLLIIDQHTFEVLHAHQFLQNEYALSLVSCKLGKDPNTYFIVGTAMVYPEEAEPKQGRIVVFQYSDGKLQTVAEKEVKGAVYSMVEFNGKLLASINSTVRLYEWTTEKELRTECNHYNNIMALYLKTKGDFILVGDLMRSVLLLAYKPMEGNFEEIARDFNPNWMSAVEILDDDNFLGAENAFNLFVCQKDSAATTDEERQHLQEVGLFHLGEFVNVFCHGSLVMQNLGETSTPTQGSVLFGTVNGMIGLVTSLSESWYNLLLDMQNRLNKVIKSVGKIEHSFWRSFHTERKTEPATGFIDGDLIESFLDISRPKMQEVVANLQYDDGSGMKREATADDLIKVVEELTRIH
T3 sequence (Q9UKT9 whole entry): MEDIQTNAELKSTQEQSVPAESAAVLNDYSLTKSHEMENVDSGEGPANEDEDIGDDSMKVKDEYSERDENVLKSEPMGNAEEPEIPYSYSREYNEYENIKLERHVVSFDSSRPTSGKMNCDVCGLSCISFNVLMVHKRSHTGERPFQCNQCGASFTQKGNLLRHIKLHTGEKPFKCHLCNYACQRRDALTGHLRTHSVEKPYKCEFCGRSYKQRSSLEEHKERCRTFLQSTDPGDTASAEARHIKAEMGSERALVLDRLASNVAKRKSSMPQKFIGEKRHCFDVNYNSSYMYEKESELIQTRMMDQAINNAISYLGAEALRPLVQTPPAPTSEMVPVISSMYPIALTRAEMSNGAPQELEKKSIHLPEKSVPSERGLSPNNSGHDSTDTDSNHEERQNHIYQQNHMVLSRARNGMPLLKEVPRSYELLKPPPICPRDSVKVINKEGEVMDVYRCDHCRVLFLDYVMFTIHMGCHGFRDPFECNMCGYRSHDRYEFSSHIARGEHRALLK
T3 sequence (Q96SW2 whole entry, further chain): as the sequence (Q96SW2 whole entry) above
T3 sequence (Q16531 whole entry partner): as the sequence (Q16531 whole entry partner) above

Q: For `COc1cc2nn([C@H]3CC[C@H](CN4CC5(CC(CCNc6cccc7c6C(=O)N(C6CCC(=O)NC6=O)C7=O)C5)C4)CC3)cc2cc1NC(=O)c1cccc(C(C)(F)F)n1` (mixture of isomers) [I-93, 6-(1,1-difluoroethyl)-N-[2-[4-[[6-[2-[[2-(2,6-dioxo-3-piperidyl)-1,3-dioxo-isoindolin-4-yl]amino]ethyl]-2-azaspiro[3.3]heptan-2-yl]methyl]cyclohexyl]-6-methoxy-indazol-5-yl]pyridine-2-carboxamide], which DC50 (IRAK4; [6]) is on record?
A: < 50 nM

Q: What about the DC50 (IRAK4; [7]) of the same molecule?
A: 50 to 100 nM

Q: And the IC50 (OCI-LY10 cells; [8])?
A: < 0.05 µM

Q: And the DC50 [1]?
A: < 50 nM

Q: And the DC50 [2]?
A: < 50 nM

Q: What about the IC50 (SUDHL-2 cells; [9]) of the same molecule?
A: 0.1 to 0.5 µM

Q: Which ring closure, yield after HPLC ([3]; the molecule shown is the open-chain precursor, BrettPhos-Pd-G4/BrettPhos/Cs2CO3, dioxane, 53.8 mM, 60.0 °C) does the source give for `NC(=O)c1cccc(OCCO[C@@H]2CCN(c3cc4nn(C5CCC(CO)CC5)cc4cc3Br)C2)c1` (some centres unmarked) here?
A: 31%

Q: With `COc1cc2nn([C@H]3CC[C@H](CN4CCC5(CC4)CC(CCNc4cccc6c4C(=O)N(C4CCC(=O)NC4=O)C6=O)C5)CC3)cc2cc1NC(=O)c1cccc(C(C)(F)F)n1` (some centres unmarked) [I-63, 6-(1,1-Difluoroethyl)-N-[2-[4-[[2-[2-[[2-(2,6-dioxo-3-piperidyl)-1,3-dioxo-isoindolin-4-yl]amino]ethyl]-7-azaspiro[3.5]nonan-7-yl]methyl]cyclohexyl]-6-methoxy-indazol-5-yl]pyridine-2-carboxamide] as the molecule, how does the DC50 (IRAK4; [6]) read?
A: < 50 nM

Q: And the DC50 (IRAK4; [7])?
A: 50 to 100 nM

Q: What about the IC50 (OCI-LY10 cells; OCI-Ly10, 96 h, read-out: CTG Cell Viability Assay - OCI-LY10: IC50 (μM)) of the same molecule?
A: 0.05 to 0.1 µM

Q: And the DC50 [1]?
A: < 50 nM

Q: And the DC50 [2]?
A: < 50 nM

Q: And the IC50 (SUDHL-2 cells; read-out: CTG Cell Viability Assay - SUDHL-2: IC50 (μM))?
A: 0.1 to 0.5 µM

Q: What does the source list for `CN(C[C@H]1CC[C@H](n2cc3cc(NC(=O)c4cccc(C(F)(F)F)n4)c(C(C)(C)O)cc3n2)CC1)C1CCN(Cc2cccc3c2n(C)c(=O)n3C2CCC(=O)NC2=O)CC1` (some centres unmarked) [I-1]?
A: DC50 (IRAK4; [7]): 100 to 500 nM; IC50 [4]: > 10000 nM; IC50 [5]: > 10000 nM; IC50 (U2932 (MYD88 WT line)): > 10000 nM; IC50 (SU-DHL6 (MYD88 WT line)): 5600 nM; IC50 (OCI-LY19 (MYD88 WT line)): > 10000 nM

Q: Which results are given for `COc1cc2nn([C@H]3CC[C@H](CN4CCC5(CC4)CC(CNc4cccc6c4C(=O)N(C4CCC(=O)NC4=O)C6=O)C5)CC3)cc2cc1NC(=O)c1cccc(C(F)(F)F)n1` (some centres unmarked) [I-201, N-[2-[4-[[2-[[[2-(2,6-dioxo-3-piperidyl)-1,3-dioxo-isoindolin-4 yl]amino]methyl]-7-azaspiro[3.5]nonan-7-yl]methyl]cyclohexyl]-6-methoxy-indazol-5-yl]-6-(trifluoromethyl)pyridine-2-carboxamide]?
A: DC50 (IRAK4; [6]): < 50 nM; DC50 (IRAK4; [7]): 50 to 100 nM; IC50 (OCI-LY10 cells; [8]): < 0.05 µM; DC50 [1]: 50 to 100 nM; DC50 [2]: < 50 nM; IC50 (SUDHL-2 cells; [9]): > 1 µM

Q: For “12-((1R,4R)-4-(hydroxymethyl)cyclohexyl)-12H-5,8,11-trioxa-2-aza-1(5,6)-indazola-4(2,6)-pyridinacycloundecaphan-3-one”, which ring closure, yield after HPLC ([3]; BrettPhos Pd G4/Cs2CO3, DMA, 21.2 mM, 80.0 °C) is on record?
A: 58%
